# Assay results: US20090118204A1, “Methods and Compositions Related to Esculentoside A” (UNIVERSITY OF ROCHESTER, priority 2004, published 2009)
# Entries after “also recorded” stand apart in the source; their conditions may differ. Like-named read-outs stand apart in the source and are kept apart here.
# Columns and labels:
# C57BL/6 mice [1] = assay: IR-induced early soft tissue (skin) toxicity in mice; assay type: in vivo, mouse; settings: for skin damage score: day 19 after 30 Gy single dose IR, EsA 10 mg/kg i.p., Celebrex 50 mg/kg intragastric, 16 h before then daily, Table 4 criteria 1.0 normal to 5.0 necrosis, control above 4.5
# Experimental: EsA protects the soft tissue from IR-induced damage. IR sensitive and IL1β high expressing C57BL/6 mice are irradiated with 30 Gy and the skin damage is measured with a preclinical criteria (Table 4).
# The effect of EsA was examined with this model system. […] The difference was statistically significant (FIG. 7).
# A repeat experiment was performed with an increased number of mice (10 mice/group), and the EsA protective effect was confirmed.
# ICAM-1 and CD18 = settings: LPS-induced; cited from earlier work
# [2] = system: NO production in Raw264.7; assay: IR-induced NO production (nitrite, Griess) in Raw264.7; assay type: cell-based, mouse; settings: EsA 0.5 or 5 μg/ml added 8 hours before 4 Gy; media 24 hours later
# Experimental: (§1) The anti-tumor effectiveness of IR is based in part on triggering the reactive oxygen species and free radicals in tumors; meanwhile, IR also damages normal tissues and causes unwanted toxicity.
# (§2) The study was carried out in Raw264.7 cells that were irradiated with 0, 2, 4 and 8 Gy. […] At this optimal condition, EsA (0.5 or 5 μg/ml) was added 8 hours before the IR at 4 Gy and 24 hours later, the media was harvested and 100 μl of media was measured for NO content in the form of nitrite. […] To see if this inhibition was cell line specific, another human macrophage cell line THP-1 was examined.
# androgen receptor (AR) = target: T1, androgen receptor (AR) (Mus musculus, UniProt P19091); assay: CAT reporter assay for hormone transactivity in E8.2.A3 cells, AR; assay type: cell-based; settings: 44 hours; EsA 0.4 ng/ml to 40000 μg/ml; DHT 5×10^−7 M
# T1 construct: contain high levels of AR; endogenous in cells; host or cells: E8.2.A3 cells (mouse L cell fibroblast variant)
# T1 sequence (P19091 whole entry): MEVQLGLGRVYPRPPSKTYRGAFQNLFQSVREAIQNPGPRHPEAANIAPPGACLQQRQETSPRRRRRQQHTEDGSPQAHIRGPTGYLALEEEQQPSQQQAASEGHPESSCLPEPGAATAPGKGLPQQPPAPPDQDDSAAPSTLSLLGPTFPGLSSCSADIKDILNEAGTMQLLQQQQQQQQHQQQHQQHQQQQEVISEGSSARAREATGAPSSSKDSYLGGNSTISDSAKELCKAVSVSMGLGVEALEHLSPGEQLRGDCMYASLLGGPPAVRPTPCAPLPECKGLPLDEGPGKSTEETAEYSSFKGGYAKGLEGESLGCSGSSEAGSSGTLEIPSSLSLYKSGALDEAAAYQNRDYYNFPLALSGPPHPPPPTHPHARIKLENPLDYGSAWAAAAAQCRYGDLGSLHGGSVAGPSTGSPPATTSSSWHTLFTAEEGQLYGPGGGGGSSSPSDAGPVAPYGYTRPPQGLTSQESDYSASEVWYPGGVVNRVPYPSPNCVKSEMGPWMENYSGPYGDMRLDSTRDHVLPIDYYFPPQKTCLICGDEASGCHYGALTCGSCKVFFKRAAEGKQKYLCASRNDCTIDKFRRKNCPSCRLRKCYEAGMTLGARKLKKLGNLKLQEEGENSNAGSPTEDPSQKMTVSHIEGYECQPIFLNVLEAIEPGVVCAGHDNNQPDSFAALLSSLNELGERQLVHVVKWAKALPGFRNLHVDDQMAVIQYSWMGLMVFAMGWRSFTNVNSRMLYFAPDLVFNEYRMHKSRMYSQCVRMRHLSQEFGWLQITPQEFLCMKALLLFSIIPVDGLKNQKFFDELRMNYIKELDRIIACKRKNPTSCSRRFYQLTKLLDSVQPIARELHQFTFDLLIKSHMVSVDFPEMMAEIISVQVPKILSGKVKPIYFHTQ
# Experimental: (§3) Structurally, EsA has a certain similarity with steroidal hormone, especially a steroid-like back-bone. […] A sensitive reporter system for the hormone transactivity of glucocorticoids receptor (GR) and androgen receptor (AR) was set up as elucidated in the chart (FIG. 12). […] Individual clones with stably transfected mGR and CAT reporter gene were selected with 400 μg/ml of G418 in DMEM medium containing 3% charcoal stripped new born calf serum. […] The treated cells were washed with phosphate buffer saline (PBS) once. To each well, 0.25 ml of 0.25M Tris-HCl was added. The plates underwent 3 cycles of freeze and thaw at −70° C. and room temperature followed by heating at 65° C. for 10 min by floating the plates in a hot water bath. Then, 0.1 ml of cell lysate from each well was used for the CAT assay. […] Briefly, 100 μl of cell lysate from each well were mixed with 150 μl reaction solution (128 μl of 0.25 M Tris-HCl, pH 7.8, 2 μl of the commercial ^3H-acetyl CoA and 20 μl of 2 mg/ml chloramphenicol) in the scintillation vials. To each vial, 2 ml non-aqueous scintillation fluid was added and mixed with the reaction by shaking or vortexing. The vials were counted 3-6 times in a scintillation counter at regular intervals over 1 to 4 hours.
# activated splenocytes = settings: cited from earlier work
# [3] = system: Lewis' lung carcinoma cells; assay: Tumor growth of Lewis' lung carcinoma in syngeneic mice; assay type: in vivo, mouse; settings: daily for 20 days, same dose as in soft tissue protection
# From the text: Considering that EsA is used as a radioprotector in patients with tumors, its effect on tumor growth is a critical issue for its application.
# peritoneal macrophages = settings: macrophages from mice pretreated with thioglycolate; cited from earlier work
# ovine COX-1 = target: T2, ovine COX-1 (Ovis aries, UniProt P05979); assay: Cayman COX Inhibitor Screening Assay, COX-1; assay type: biochemical; settings: prostanoid quantified by EIA
# T2 construct: purchased Cayman 560131
# T2 sequence (P05979 25-600): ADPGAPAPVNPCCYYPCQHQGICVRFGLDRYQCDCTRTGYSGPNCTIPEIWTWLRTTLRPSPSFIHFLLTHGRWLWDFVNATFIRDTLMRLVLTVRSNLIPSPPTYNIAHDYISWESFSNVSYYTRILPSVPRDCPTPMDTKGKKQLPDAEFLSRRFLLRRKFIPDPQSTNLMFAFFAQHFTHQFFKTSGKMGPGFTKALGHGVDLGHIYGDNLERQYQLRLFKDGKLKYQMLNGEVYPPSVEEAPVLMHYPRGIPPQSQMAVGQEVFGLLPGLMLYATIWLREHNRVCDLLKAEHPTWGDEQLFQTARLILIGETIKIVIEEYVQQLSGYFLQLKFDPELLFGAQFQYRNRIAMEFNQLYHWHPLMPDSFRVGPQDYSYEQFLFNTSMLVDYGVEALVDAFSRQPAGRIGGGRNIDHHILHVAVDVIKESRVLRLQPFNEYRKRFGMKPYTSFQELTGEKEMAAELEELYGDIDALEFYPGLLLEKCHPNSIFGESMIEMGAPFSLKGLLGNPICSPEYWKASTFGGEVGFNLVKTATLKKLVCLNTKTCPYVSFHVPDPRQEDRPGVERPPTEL
# From the text: (§4) It is known that constitutive COX-1 and inducible COX-2 catalyze the production of prostaglandins (PGs) from arachidonic acid. The Cayman COX Inhibitor Screening Assay kit directly measures PGF2α produced by SnCl2 reduction of COX-derived PGH2. The prostanoid product is quantified via enzyme immunoassay (EIA) using a broadly specific antibody that binds to all the major prostaglandin compounds (FIG. 15A). To distinguish the inhibition of COX-1 from COX-2, both ovine COX-1 and human recombinant COX-2 enzymes were used as targets. […] EsA is a novel COX-2 inhibitor, which accounts for its observed protective effects on skin (FIGS. 5-7) and brain (FIGS. 8-9).
# C57BL/6 mice [4] = settings: 40 Gy whole head; EsA 10 mg/kg i.p., Dex 3 mg/kg i.v. before IR; brains taken 24 h later; P<0.05
# Experimental: 16 hour before the whole heads of mice were irradiated at 40 Gy.
# The mice without radiation served as negative controls. Twenty four hours later, the whole brain was taken out, weighed (wet weight), placed on aluminum foil and placed in an oven at 60° C. At different time points (10 min intervals for the first 2 hours and then 4, 6, 24 hr), the brains were weighed, and the results were expressed as: % water={(wet weight−dry weight)/wet weight}×100%. The higher the % water, the greater the severity of edema. Brain % water as a function of time provided a brain drying curve.
# human recombinant COX-2 = target: T3, human recombinant COX-2 (Homo sapiens, UniProt P35354); assay: Cayman COX Inhibitor Screening Assay, COX-2; assay type: biochemical; settings: prostanoid quantified by EIA
# T3 construct: purchased Cayman 560131
# T3 sequence (P35354 18-604): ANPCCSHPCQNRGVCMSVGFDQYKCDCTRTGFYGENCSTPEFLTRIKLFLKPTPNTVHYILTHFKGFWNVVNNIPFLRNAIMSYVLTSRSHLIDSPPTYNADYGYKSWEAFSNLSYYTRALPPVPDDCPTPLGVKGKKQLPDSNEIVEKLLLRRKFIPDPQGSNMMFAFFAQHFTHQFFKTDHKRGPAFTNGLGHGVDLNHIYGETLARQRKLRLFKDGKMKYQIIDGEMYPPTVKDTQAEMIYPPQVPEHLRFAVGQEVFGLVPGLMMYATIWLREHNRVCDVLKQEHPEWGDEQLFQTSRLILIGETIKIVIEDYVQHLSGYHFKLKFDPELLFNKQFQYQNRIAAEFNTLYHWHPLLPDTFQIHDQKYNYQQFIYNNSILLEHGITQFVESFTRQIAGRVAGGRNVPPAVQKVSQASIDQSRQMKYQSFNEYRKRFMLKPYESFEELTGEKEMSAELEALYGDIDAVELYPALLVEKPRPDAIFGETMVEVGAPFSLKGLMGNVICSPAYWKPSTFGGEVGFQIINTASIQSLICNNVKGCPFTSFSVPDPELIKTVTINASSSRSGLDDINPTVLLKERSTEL
# From the text: as §4
# [5] = system: autoimmunity animal model; settings: in vivo; cited from earlier work
# [6] = system: prostaglandin E2 (PGE2), platelet-activating factor (PAF), and nitric oxide (NO); settings: cited from earlier work
# mouse = assay: Alopecia and hair regrowth after 30 Gy irradiation; assay type: in vivo
# mice = settings: following LPS challenge; cited from earlier work
# [7] = system: IL1α production by RAW264.7; assay: IL1α production by macrophages; assay type: cell-based, mouse; settings: FIG. 29, in vitro macrophages
# activated thymocytes = settings: cited from earlier work
# E8.2.A3 cells = assay: Morphological changes and cell death in reporter cells; assay type: cell-based, mouse; settings: 44 hours, observed twice a day
# [8] = target: T4, glucocorticoids receptor (GR) (Mus musculus, UniProt P06537); assay: CAT reporter assay for hormone transactivity in E8.2.A3 cells, GR; assay type: cell-based; settings: 44 hours; EsA 0.4 ng/ml to 40000 μg/ml; Dex 5×10^−7 M
# T4 construct: expressed in transfected cells
# T4 sequence (P06537 whole entry): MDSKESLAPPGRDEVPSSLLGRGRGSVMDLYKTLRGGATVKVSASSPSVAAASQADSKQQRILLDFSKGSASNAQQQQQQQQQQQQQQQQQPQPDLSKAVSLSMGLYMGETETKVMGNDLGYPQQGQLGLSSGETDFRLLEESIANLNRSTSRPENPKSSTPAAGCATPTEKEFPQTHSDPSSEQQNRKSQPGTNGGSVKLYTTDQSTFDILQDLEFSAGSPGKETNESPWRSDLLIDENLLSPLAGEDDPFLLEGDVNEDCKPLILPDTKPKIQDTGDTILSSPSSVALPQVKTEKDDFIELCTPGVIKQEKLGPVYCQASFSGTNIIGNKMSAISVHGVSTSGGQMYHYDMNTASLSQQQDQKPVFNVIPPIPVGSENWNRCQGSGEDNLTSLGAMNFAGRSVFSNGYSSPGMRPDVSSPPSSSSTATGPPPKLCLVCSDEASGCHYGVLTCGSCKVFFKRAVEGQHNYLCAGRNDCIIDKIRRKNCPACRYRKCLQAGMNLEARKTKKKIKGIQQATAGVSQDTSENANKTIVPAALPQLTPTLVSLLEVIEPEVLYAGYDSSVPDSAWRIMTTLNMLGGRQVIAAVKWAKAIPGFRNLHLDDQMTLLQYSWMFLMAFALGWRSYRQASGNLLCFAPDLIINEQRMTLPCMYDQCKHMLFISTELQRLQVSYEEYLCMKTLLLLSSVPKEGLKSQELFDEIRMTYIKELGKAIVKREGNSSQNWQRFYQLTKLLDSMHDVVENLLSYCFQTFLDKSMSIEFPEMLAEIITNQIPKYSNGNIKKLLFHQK
# Experimental: as §3
# [9] = system: VEGF production by mouse fibroblast L-929; assay: VEGF production by fibroblasts; assay type: cell-based; settings: FIG. 10
# [10] = system: IL1β production in A431 human epidermoid carcinoma cells; assay: IR-induced IL1β production (ELISA) in A431; assay type: cell-based
# activated macrophages = settings: cited from earlier work
# sensitized mice = settings: mouse, in vivo; cited from earlier work
# [11] = system: IL1β production in Raw 264.7 macrophage cells; assay: IR-induced IL1β production (ELISA) in Raw 264.7; assay type: cell-based, mouse; settings: 2 Gy, 24 hours culture
# Experimental: IL1β is crucial mediator in early IR toxicity of both brain and soft tissue. […] The protective effect of EsA on early IR toxicity results in part from this effect. First we determined the optimal IR dose to induce IL1 production in Raw 264.7 macrophage cells. Equal numbers of cells were exposed to 0, 2, 4 and 8 Gy IR and 24 hours later, the conditioned media were harvested and 100 μl of media from each sample was measured for IL1β concentration by specific IL1β ELISA using monoclonal antibodies (purchased from R&D Systems, Inc). […] Therefore, 2 Gy was used as optimal IR dose for Raw 264.7 for this set of tests. The cells were treated with 0.1 or 1 μg/ml of EsA for 18 hours, irradiated at 2Gy and then cultured for another 24 hours. The media were measured for protein level of IL1β by ELISA.
# murine ears = settings: induced by zylene, acute inflammation model; cited from earlier work
# rat hind paws = settings: cited from earlier work; for swelling of hind paws: induced by carrageenan
# [12] = system: TNF production by Raw264.7; assay: TNF production by macrophages with LPS and radiation; assay type: cell-based, mouse; settings: FIG. 31, LPS and radiation
# [13] = system: granuloma induced by cotton pellet; settings: cited from earlier work
# [14] = cited from earlier work
# NO production in THP-1 = assay: IR-induced NO production in THP-1; assay type: cell-based, human; settings: 0.1, 0.5 and 5 μg/ml EsA; NO up-regulated 5 fold 4 hours after IR
# Experimental: as §1, §2
# IR brain edema = settings: cited from earlier work
# COX-2 transgenic mice = settings: mouse, in vivo; cited from earlier work
# [15] = relative long-term use (>2-3 weeks after IR)
structure (smiles),measurement,setting,value
"Cc1ccc(-c2cc(C(F)(F)F)nn2-c2ccc(S(N)(=O)=O)cc2)cc1 [Celebrex, celecoxib, reference compound]",skin damage score,C57BL/6 mice [1],about 3
"COC(=O)[C@@]1(C)CC[C@]2(C(=O)O)CC[C@]3(C)C(=CC[C@@H]4[C@@]5(C)C[C@H](O)[C@H](O[C@@H]6OC[C@@H](O[C@@H]7O[C@H](CO)[C@@H](O)[C@H](O)[C@H]7O)[C@H](O)[C@H]6O)[C@@](C)(CO)[C@@H]5CC[C@]43C)[C@@H]2C1 [EsA, Esculentoside A]",expression of adhesion molecules ICAM-1 and CD18,ICAM-1 and CD18,suppressed
same,IR-induced NO production,[2],inhibited
same,protection of soft tissue,"C57BL/6 mice [1]; 4 weeks after 30 Gy IR, same dosing",effectively protected the soft tissue
same,skin damage score,C57BL/6 mice [1],about 2
same,early IR skin toxicity,C57BL/6 mice [1]; [15],prevented
same,second wave of IL1β,C57BL/6 mice [1]; [15],blocked
same,signs of sickness,C57BL/6 mice [1]; whole course of EsA treatment,no signs of sickness were observed
same,androgen hormone transactivity (CAT activity),androgen receptor (AR),neither androgen nor glucocorticoidal hormone transactivity
same,production of IL-2,activated splenocytes,inhibited
same,tumor growth,[3],little effect on tumor growth
same,"release of TNF, IL-1 and IL-6",peritoneal macrophages,significantly reduced
same,effect on COX-1,ovine COX-1,no effect
same,brain edema (% water),C57BL/6 mice [4],reduction of brain edema was statistically significant; also recorded: less extensive brain edema; also recorded: can reduce IR-induced brain edema
same,effect on COX-2,human recombinant COX-2,inhibited the COX-2 in a dose-dependent manner
same,inflammation of joint and viscera,[5],decreased
same,"production of PGE2, PAF and NO",[6],inhibited
same,hair regrowth / duration of alopecia,"mouse; 30 Gy, Celebrex i.g. 50 mg/kg for 20 days",after two weeks
same,recovery of cranial alopecia,mouse; EsA compared with celebrex,recovered more quickly and completely
same,"TNF, IL-1 and IL-6 levels in the sera",mice,dose-dependently decreased
same,IL1α production,[7],inhibitory effect
same,apoptosis of activated thymocytes,activated thymocytes,accelerated
same,concentration at which death of cells was observed,E8.2.A3 cells,40000 µg/mL
same,concentration with no morphological change of cells,E8.2.A3 cells,below 4 mg/ml
same,glucocorticoidal hormone transactivity (CAT activity),[8],neither androgen nor glucocorticoidal hormone transactivity
same,VEGF production,[9],inhibitory effect
same,IL1β induced by IR,"[10]; EsA 0.1 μg/ml, 4 Gy, P<0.01",inhibited; also recorded: reduced
same,IL1β production induced by IR in vitro in epithelial cells,[10]; FIG. 27,inhibitory effect
same,"macrophage functions (phagocytosis, antibody production, secretion of cytokines)",activated macrophages,diminished
same,serum hemolysin concentration,sensitized mice,markedly decreased
same,IR-induced production of IL1β,[11]; EsA 0.1 μg/ml for 18 hours,dramatically inhibited; also recorded: reduced
same,IR-induced production of IL1β,"[11]; EsA 1 μg/ml for 18 hours, P<0.01",reduced the IL1β to the basal level
same,swelling of ears,murine ears,markedly lowered
same,duration of the effects,rat hind paws; acute inflammation models,more than 5 hours
same,swelling of hind paws,rat hind paws; adrenalectomised rat,suppressed
same,swelling of hind paws,rat hind paws,inhibited
same,TNF production,[12],inhibitory effect
same,proliferation of granuloma,[13],significantly inhibited
same,water-solubility,[14],high water-solubility
same,reduction of NO production,NO production in THP-1,3 fold
CS(=O)(=O)Nc1ccc([N+](=O)[O-])cc1OC1CCCCC1 [NS-398],induction of prostanoid and IR brain edema,IR brain edema; Moore et al. 2004,blocked
same,IR toxicity in brain and soft tissue,"IR brain edema; mouse, in vivo",protected
COc1ccc2c(c1)c(CC(=O)O)c(C)n2C(=O)c1ccc(Cl)cc1 [indomethacin],microvessel density,COX-2 transgenic mice,strongly decreased
same,tumor progression,COX-2 transgenic mice,inhibited
same,upregulation of angiogenic regulatory genes in mammary tissue,COX-2 transgenic mice,inhibited
